Experimental data reported in PubChem BioAssay (NCI).
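96-well plates; 48 h exposure; 5 concentrations. Endpoints by linear interpolation between flanking doses. Not reached: highest tested concentration assigned. Abbreviation: GI50, concentration required for 50% inhibition of growth. TGI marks complete inhibition of growth.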

Key:
Assay in all cases: NCI anticancer screen, dose series, 48 h; in the data active means GI50 below about 0.43 µM; inactive means the rest
[1] = test system: 786-0 renal
[2] = test system: A498 renal
[3] = test system: A549 NSCLC
[4] = test system: ACHN renal
[5] = test system: BT-549 breast
[6] = test system: CAKI-1 renal
[7] = test system: CCRF-CEM leukemia
[8] = test system: DU-145 prostate
[9] = test system: EKVX NSCLC
[10] = test system: HCC-2998 colon
[11] = test system: HCT-116 colon
[12] = test system: HCT-15 colon
[13] = test system: HL-60(TB) leukemia
[14] = test system: HOP-62 NSCLC
[15] = test system: HOP-92 NSCLC
[16] = test system: HS 578T breast
[17] = test system: HT29 colon
[18] = test system: IGROV1 ovarian
[19] = test system: K-562 leukemia
[20] = test system: LOX IMVI melanoma
[21] = test system: M14 melanoma
[22] = test system: MALME-3M melanoma
[23] = test system: MCF7 breast
[24] = test system: MDA-MB-231 breast
[25] = test system: MDA-MB-435
[26] = test system: MOLT-4 leukemia
[27] = test system: NCI-H226 lung
[28] = test system: NCI-H23 lung
[29] = test system: NCI-H460 lung
[30] = test system: NCI-H522 lung
[31] = test system: NCI/ADR-RES ovarian
[32] = test system: OVCAR-3 ovarian
[33] = test system: OVCAR-4 ovarian
[34] = test system: OVCAR-5 ovarian
[35] = test system: OVCAR-8 ovarian
[36] = test system: PC-3 prostate
[37] = test system: RPMI-8226 leukemia
[38] = test system: RXF 393 renal
[39] = test system: SF-268 CNS
[40] = test system: SF-295 CNS
[41] = test system: SF-539 CNS
[42] = test system: SK-MEL-2 melanoma
[43] = test system: SK-MEL-28 melanoma
[44] = test system: SK-MEL-5 melanoma
[45] = test system: SK-OV-3 ovarian
[46] = test system: SN12C renal
[47] = test system: SNB-19 CNS
[48] = test system: SNB-75 CNS
[49] = test system: SR leukemia
[50] = test system: SW-620 colon
[51] = test system: T-47D breast
[52] = test system: TK-10 renal
[53] = test system: U251 CNS
[54] = test system: UACC-257 melanoma
[55] = test system: UACC-62 melanoma
[56] = test system: UO-31 renal
[57] = test system: COLO 205 colon
[58] = test system: KM12 colon

N#Cc1c(N)nn(C(=O)c2ccc(NC(=O)c3ccccn3)cc2)c1-c1ccc(Cl)cc1
33.3 µM: TGI [47]
12.5 µM: TGI [41]
24.5 µM: TGI [38]
31 µM: TGI [27]
> 100 µM: TGI [2] | TGI [5] | TGI [7] | TGI [9] | TGI [10] | TGI [11] | TGI [12] | TGI [13] | TGI [16] | TGI [17] | TGI [19] | TGI [20] | TGI [21] | TGI [23] | TGI [24] | TGI [25] | TGI [26] | TGI [30] | TGI [31] | TGI [34] | TGI [36] | TGI [37] | TGI [42] | TGI [43] | TGI [44] | TGI [46] | TGI [49] | TGI [50] | TGI [55]
6.3 µM: TGI [6]
16.8 µM: TGI [18]
24.3 µM: TGI [32]
8.54 µM: TGI [1]
8.37 µM: TGI [14]
19.4 µM: TGI [52]
9.15 µM: TGI [51]
34.9 µM: TGI [45]
17.7 µM: TGI [35]
15.5 µM: TGI [4]
6.45 µM: TGI [22]
4.07 µM: TGI [48]
9.5 µM: TGI [15]
12.8 µM: TGI [3]
15.7 µM: TGI [40]
61.7 µM: TGI [29]
inactive: GI50 [1] 2.97 µM | GI50 [2] 15.1 µM | GI50 [3] 3.24 µM | GI50 [4] 3.48 µM | GI50 [5] 4.86 µM | GI50 [6] 2.06 µM | GI50 [7] 8.86 µM | GI50 [8] 2.7 µM | GI50 [9] 6.96 µM | GI50 [10] 3.68 µM | GI50 [11] 3.32 µM | GI50 [12] 5.04 µM | GI50 [13] > 100 µM | GI50 [14] 2.53 µM | GI50 [15] 2.31 µM | GI50 [16] 2.89 µM | GI50 [17] 3.55 µM | GI50 [18] 2.63 µM | GI50 [19] 6.62 µM | GI50 [20] 5.75 µM | GI50 [21] 5.52 µM | GI50 [22] 2.35 µM | GI50 [23] 2.71 µM | GI50 [24] 11.6 µM | GI50 [25] 4.81 µM | GI50 [26] 25.7 µM | GI50 [27] 3.08 µM | GI50 [28] 3.77 µM | GI50 [29] 4.02 µM | GI50 [30] 4.52 µM | GI50 [31] 4.09 µM | GI50 [32] 3.9 µM | GI50 [33] 2.33 µM | GI50 [34] 8.65 µM | GI50 [35] 3.38 µM | GI50 [36] 3.58 µM | GI50 [37] > 100 µM | GI50 [38] 3.11 µM | GI50 [39] 3.55 µM | GI50 [40] 3.06 µM | GI50 [41] 3.21 µM | GI50 [42] 71.6 µM | GI50 [43] 5.68 µM | GI50 [44] 7.15 µM | GI50 [45] 5.23 µM | GI50 [46] 6.42 µM | GI50 [47] 4.15 µM | GI50 [48] 1.86 µM | GI50 [49] 3.81 µM | GI50 [50] 3.7 µM | GI50 [51] 2.79 µM | GI50 [52] 3.65 µM | GI50 [53] 2.33 µM | GI50 [54] 4.34 µM | GI50 [55] 9.45 µM | GI50 [56] 1.79 µM
6.02 µM: TGI [33]
5.27 µM: TGI [56]
68.3 µM: TGI [54]
5.75 µM: TGI [53]
34.8 µM: TGI [28]
24.1 µM: TGI [39]
7.29 µM: TGI [8]

CCN1CCC(C(=O)Nc2n[nH]c3nnc(-c4cccc(F)c4F)cc23)CC1
> 20.1 µM: TGI [51]
> 12.8 µM: TGI [23]
20.3 µM: TGI [24]
> 18.4 µM: TGI [43]
active: GI50 [38] 0.403 µM
> 25 µM: TGI [1] | TGI [3] | TGI [4] | TGI [5] | TGI [6] | TGI [7] | TGI [9] | TGI [10] | TGI [11] | TGI [12] | TGI [17] | TGI [18] | TGI [19] | TGI [20] | TGI [21] | TGI [22] | TGI [25] | TGI [26] | TGI [28] | TGI [29] | TGI [31] | TGI [34] | TGI [35] | TGI [36] | TGI [37] | TGI [39] | TGI [40] | TGI [46] | TGI [47] | TGI [49] | TGI [50] | TGI [52] | TGI [53] | TGI [54] | TGI [55] | TGI [56]
11.9 µM: TGI [27]
14.2 µM: TGI [42]
22 µM: TGI [33]
19.5 µM: TGI [13]
24.6 µM: TGI [8]
7.46 µM: TGI [44]
> 6.6 µM: TGI [2]
9.17 µM: TGI [57]
18.3 µM: TGI [41]
> 23.9 µM: TGI [15]
> 23.1 µM: TGI [16]
> 19.3 µM: TGI [14] | TGI [48]
> 17 µM: TGI [30]
> 14.2 µM: TGI [32]
5.78 µM: TGI [38]
inactive: GI50 [1] 6.32 µM | GI50 [2] 0.543 µM | GI50 [3] 10.5 µM | GI50 [4] 9.68 µM | GI50 [5] 12.2 µM | GI50 [6] > 25 µM | GI50 [7] 6.75 µM | GI50 [57] 4.61 µM | GI50 [8] 10.3 µM | GI50 [9] 16.9 µM | GI50 [10] 16 µM | GI50 [11] 7.36 µM | GI50 [12] > 25 µM | GI50 [13] 8.16 µM | GI50 [14] 7.62 µM | GI50 [15] 8.03 µM | GI50 [16] 3.68 µM | GI50 [17] 5.02 µM | GI50 [18] > 21.4 µM | GI50 [19] 8.39 µM | GI50 [58] 6.1 µM | GI50 [20] 5.59 µM | GI50 [21] 11.4 µM | GI50 [22] > 22.6 µM | GI50 [23] 2.2 µM | GI50 [24] 5.51 µM | GI50 [25] 10.5 µM | GI50 [26] 12.1 µM | GI50 [27] 3.41 µM | GI50 [28] 16.5 µM | GI50 [29] 7.96 µM | GI50 [30] 6.68 µM | GI50 [31] > 25 µM | GI50 [32] 2.78 µM | GI50 [33] 7.04 µM | GI50 [34] 13.9 µM | GI50 [35] 9.46 µM | GI50 [36] 10.1 µM | GI50 [37] > 25 µM | GI50 [39] 9.08 µM | GI50 [40] 5.73 µM | GI50 [41] 3.98 µM | GI50 [42] 4.84 µM | GI50 [43] 8.35 µM | GI50 [44] 1.62 µM | GI50 [45] 2.33 µM | GI50 [46] 9.49 µM | GI50 [47] 12 µM | GI50 [48] 0.821 µM | GI50 [49] 9.61 µM | GI50 [50] 10.4 µM | GI50 [51] 4.42 µM | GI50 [52] 11.3 µM | GI50 [53] 6.17 µM | GI50 [54] 11.9 µM | GI50 [55] 10.2 µM | GI50 [56] > 25 µM
23.4 µM: TGI [45]
> 18.2 µM: TGI [58]
